Results taken from ChEMBL document CHEMBL5230084, “Indole-based derivatives as potential antibacterial activity against methicillin-resistance Staphylococcus aureus (MRSA)” (Eur J Med Chem, 2020).
≈ marks a conversion by molar mass, not a printed value. Values belong to the compound of their own block, whether it stands above or below them.

Key:
Staphylococcus aureus [1] = test: Antibacterial activity against methicillin-resistant Staphylococcus aureus; format: functional
Staphylococcus aureus [2] = test: Antibacterial activity against methicillin-resistant Staphylococcus aureus 4N216 infected in mouse assessed as endurance rate at 20 mg/kg, iv relative to control; format: functional
Staphylococcus aureus [3] = test: Antibacterial activity against methicillin-resistant Staphylococcus aureus 12 assessed as inhibition of bacterial growth; format: functional
Staphylococcus aureus [4] = test: Antibacterial activity against methicillin-resistant Staphylococcus aureus 9 assessed as inhibition of bacterial growth; format: functional
Staphylococcus aureus [5] = test: Antibacterial activity against methicillin-resistant Staphylococcus aureus 8 assessed as inhibition of bacterial growth; format: functional
Staphylococcus aureus [6] = test: Antibacterial activity against methicillin-resistant Staphylococcus aureus 4 assessed as inhibition of bacterial growth; format: functional
Staphylococcus aureus [7] = test: Antibacterial activity against methicillin-resistant Staphylococcus aureus 6 assessed as inhibition of bacterial growth; format: functional
Staphylococcus aureus [8] = test: Antibacterial activity against methicillin-resistant Staphylococcus aureus 3 assessed as inhibition of bacterial growth; format: functional
Staphylococcus aureus [9] = test: Antibacterial activity against methicillin-resistant Staphylococcus aureus 11 assessed as inhibition of bacterial growth; format: functional
[10] = Inhibition of methicillin-resistant Staphylococcus aureus pyruvate kinase
[11] = Cytotoxicity against human A549 cells assessed as inhibition of cell growth; format: toxicity, cell-based
[12] = Cytotoxicity against human PC-3 cells assessed as inhibition of cell growth; format: toxicity, cell-based
[13] = Cytotoxicity against human HeLa cells assessed as inhibition of cell growth; format: toxicity, cell-based
Staphylococcus aureus [14] = test: Antibacterial activity against methicillin-resistant Staphylococcus aureus 252 assessed as inhibition of bacterial growth; format: functional
Staphylococcus aureus [15] = test: Antibacterial activity against Staphylococcus aureus ATCC 25923 assessed as inhibition of bacterial growth by agar well diffusion method; format: functional
Staphylococcus aureus [16] = test: Antibacterial activity against Staphylococcus aureus assessed as inhibition of bacterial growth; format: functional

Structure (SMILES): OCc1cc(-c2c[nH]c3ccc(Br)cc23)nc2cc(Cl)ccc12
MIC (Staphylococcus aureus [1]): < 1 µg/mL

Structure (SMILES): Cl.OC(CNCCc1c[nH]c2cc(F)ccc12)Cn1c2ccc(Cl)cc2c2cc(Cl)ccc21 (centres undefined)
Activity (Staphylococcus aureus [2]): 75%

Structure (SMILES): CCCNc1nnc(Cc2c[nH]c3ccccc23)s1
MIC (Staphylococcus aureus [1]): 6.25 µg/mL (≈ 22.9 µM)

Structure (SMILES): N=C(N)N/N=C/c1cn(S(=O)(=O)c2ccccc2)c2ccc(-c3ccc(C(F)(F)F)cc3)cc12
MIC (Staphylococcus aureus [1]): 3.13 µg/mL (≈ 6.45 µM)

Structure (SMILES): CCCCn1cc(Br)c2c3c(-c4ccc(C)cc4)onc3ccc21
MIC (Staphylococcus aureus [1]): 4.3 µg/mL (≈ 11.2 µM)

Structure (SMILES): Brc1ccc2[nH]cc(C3Nc4ccc(I)cc4[C@H]4OCO[C@@H]34)c2c1 (some centres undefined)
MIC (Staphylococcus aureus [1]): 0.31 µg/mL (≈ 0.624 µM)

Structure (SMILES): Clc1ccc(C(c2c[nH]c3ccc(Br)cc23)c2c[nH]c3ccc(Br)cc23)cc1
MIC (Staphylococcus aureus [1]): 1 µg/mL (≈ 1.94 µM)

Structure (SMILES): Fc1ccc2c(-c3ccc4cc(Cl)ccc4n3)c[nH]c2c1
MIC (Staphylococcus aureus [1]): 0.62 µg/mL (≈ 2.09 µM)

Structure (SMILES): CCCn1cc(Br)c2c3c(-c4ccc(OC)cc4)occ3ccc21
MIC (Staphylococcus aureus [1]): 1.4 µg/mL (≈ 3.64 µM)

Structure (SMILES): Fc1ccc(C(c2c[nH]c3ccc(Br)cc23)c2c[nH]c3ccc(Br)cc23)cc1
MIC (Staphylococcus aureus [1]): 1 µg/mL (≈ 2.01 µM)

Structure (SMILES): CCOC(=O)CN(CCc1c(I)n([C@@H]2CC(OC(=O)c3ccc(C)cc3)[C@@H](COC(=O)c3ccc(C)cc3)O2)c2ccccc12)Cc1ccccc1 (some centres undefined)
MIC (Staphylococcus aureus [3]): 6 µg/mL (≈ 7.36 µM)
MIC (Staphylococcus aureus [4]): 6 µg/mL (≈ 7.36 µM)
MIC (Staphylococcus aureus [5]): 6 µg/mL (≈ 7.36 µM)
MIC (Staphylococcus aureus [6]): 6 µg/mL (≈ 7.36 µM)
MIC (Staphylococcus aureus [7]): 6 µg/mL (≈ 7.36 µM)
MIC (Staphylococcus aureus [8]): 6 µg/mL (≈ 7.36 µM)
MIC (Staphylococcus aureus [9]): 6 µg/mL (≈ 7.36 µM)

Structure (SMILES): O=C1NC[C@@H](c2c[nH]c3cc(Br)ccc23)N[C@H]1c1c[nH]c2ccccc12
IC50 [10]: 16 nM

Structure (SMILES): Oc1cccc(C(c2c[nH]c3ccc(Br)cc23)c2c[nH]c3ccc(Br)cc23)c1
MIC (Staphylococcus aureus [1]): 1 µg/mL (≈ 2.02 µM)

Structure (SMILES): Clc1ccc2c(Cl)cc(-c3c[nH]c4ccc(Br)cc34)nc2c1
MIC (Staphylococcus aureus [1]): < 1 µg/mL

Structure (SMILES): CC[C@H]1OC(=O)[C@H](C)[C@@H](O[C@H]2C[C@@](C)(OC)[C@@H](O)[C@H](C)O2)[C@H](C)[C@@H](O[C@@H]2O[C@H](C)C[C@H](N(C)C)[C@H]2O)[C@](C)(O)C[C@@H](C)C(=O)[C@H](C)[C@@H](O)[C@]1(C)O [ERYTHROMYCIN]
MIC (Staphylococcus aureus [1]): 32 µg/mL (≈ 43.6 µM)

Structure (SMILES): Clc1ccc2nc(-c3c[nH]c4ccc(Cl)cc34)ccc2c1
MIC (Staphylococcus aureus [1]): 0.62 µg/mL (≈ 1.98 µM)

Structure (SMILES): Cc1ccc(C(=O)CC2C[C@H](n3c(-c4cc5ccccc5n4S(=O)(=O)c4ccc(C)cc4)c(CC(=O)OCc4ccccc4)c4ccccc43)O[C@@H]2COC(=O)c2ccc(C)cc2)cc1 (some centres undefined)
MIC (Staphylococcus aureus [3]): 3 µg/mL (≈ 3.39 µM)
MIC (Staphylococcus aureus [4]): 3 µg/mL (≈ 3.39 µM)
MIC (Staphylococcus aureus [5]): 3 µg/mL (≈ 3.39 µM)
MIC (Staphylococcus aureus [6]): 3 µg/mL (≈ 3.39 µM)
MIC (Staphylococcus aureus [7]): 3 µg/mL (≈ 3.39 µM)
MIC (Staphylococcus aureus [8]): 3 µg/mL (≈ 3.39 µM)
MIC (Staphylococcus aureus [9]): 3 µg/mL (≈ 3.39 µM)

Structure (SMILES): O=[N+]([O-])c1ccc(C(c2c[nH]c3ccc(Br)cc23)c2c[nH]c3ccc(Br)cc23)cc1
IC50 [11]: 4500 nM
IC50 [12]: 3900 nM
MIC (Staphylococcus aureus [1]): 1 µg/mL (≈ 1.9 µM)
IC50 [13]: 2700 nM

Structure (SMILES): N=C(N)N/N=C/c1cn(S(=O)(=O)c2ccccc2)c2ccc(-c3cccc(OC(F)(F)F)c3)cc12
MIC (Staphylococcus aureus [1]): 3.13 µg/mL (≈ 6.24 µM)

Structure (SMILES): Fc1ccc2[nH]cc(-c3ccc4cc(Cl)ccc4n3)c2c1
MIC (Staphylococcus aureus [1]): 0.62 µg/mL (≈ 2.09 µM)

Structure (SMILES): O=C(NCC(NC(=O)C(=O)c1c[nH]c2ccc(Br)cc12)c1c[nH]c2ccc(Br)cc12)OC(F)(F)F (centres undefined)
MIC (Staphylococcus aureus [14]): 1 µg/mL (≈ 1.62 µM)

MIC (Staphylococcus aureus [15]): 5 µg/mL (≈ 9.89 µM)
Structure (SMILES): COc1ccc(C2C([N+](=O)[O-])C(c3ccccc3)NC23C(=O)N(Cc2ccccc2)c2ccccc23)cc1 (centres undefined)

Structure (SMILES): CCCCn1cc(Br)c2c3c(-c4ccc(Cl)cc4)onc3ccc21
MIC (Staphylococcus aureus [1]): 5 µg/mL (≈ 12.4 µM)

Structure (SMILES): O=C(c1ccc(F)cc1)C1C(c2ccc(Cl)cc2)CNC12C(=O)Nc1ccccc12 (centres undefined)
MIC (Staphylococcus aureus [16]): 30 µg/mL (≈ 71.3 µM)

Structure (SMILES): CCn1cc(Br)c2c3c(-c4ccc(OC)cc4)occ3ccc21
MIC (Staphylococcus aureus [1]): 1.4 µg/mL (≈ 3.78 µM)

Structure (SMILES): CC(NC(=O)C(=O)c1c[nH]c2ccc(Br)cc12)c1c[nH]c2ccc(Br)cc12 (centres undefined)
MIC (Staphylococcus aureus [14]): 2 µg/mL (≈ 4.09 µM)

Structure (SMILES): Fc1ccc(Nc2nnc(Cc3c[nH]c4ccccc34)s2)c(F)c1
MIC (Staphylococcus aureus [1]): 50 µg/mL (≈ 146 µM)

Structure (SMILES): O=C(C1=NC(c2c[nH]c3cc(Br)ccc23)CN1)c1c[nH]c2ccccc12 (centres undefined) [SPONGOTINE A]
IC50 [10]: 16 nM

Structure (SMILES): CCCCn1cc(Br)c2c3c(-c4ccc(OC)cc4)occ3ccc21
MIC (Staphylococcus aureus [1]): 1.4 µg/mL (≈ 3.51 µM)
